From publication PMC9000871, “Rhodamine 101 Conjugates of Triterpenoic Amides Are of Comparable Cytotoxicity as Their Rhodamine B Analogs” (Molecules, 2022)
Structures can show the parent of a compound that is named as a salt.

How the values were obtained:
[1] = system: NIH 3T3 (fibroblasts), non-malignant; experiment: SRB cytotoxicity assay, NIH 3T3; type: cell-based; conditions: Mus musculus, mean ± standard mean error
Text: (§1) The cell lines were obtained from Department of Oncology (Martin-Luther-University Halle Wittenberg; they were bought from ATCC; A 375 (CRL-1619), HT29 (HTB-38), MCF7 (HTM-22), A2780 (HTP-77), FaDu (HTP-43), NIH 3T3 (CRL-1658), HEK-293 (CRL-1573)). Cultures were maintained as monolayers in RPMI 1640 medium with L-glutamine (Capricorn Scientific GmbH, Ebsdorfergrund, Germany) supplemented with 10% heat inactivated fetal bovine serum (Sigma-Aldrich Chemie GmbH, Steinheim, Germany) and penicillin/streptomycin (1%, Capricorn Scientific GmbH, Ebsdorfergrund, Germany) at 37 °C in a humidified atmosphere with 5% CO2. The cytotoxicity of the compounds was evaluated using the sulforhodamine-B (Kiton-Red S, ABCR) micro culture colorimetric assay using confluent cells in 96-well plates with the seeding of the cells on day 0 applying appropriate cell densities to prevent confluence of the cells during the period of the experiment. On day 1, the cells were treated with six different concentrations (1, 3, 7, 12, 20, and 30 μM); thereby, the final concentration of DMSO was always <0.5%, generally regarded as non-toxic to the cells. On day 4, the supernatant medium was discarded; the cells were fixed with 10% trichloroacetic acid. After another day at 4 °C, the cells were washed in a strip washer and dyed with the SRB solution (100 μL, 0.4% in 1% acetic acid) for about 20 min to be followed by washing of the plates (four times, 1% acetic acid) and air-drying overnight. Furthermore, tris base solution (200 μL, 10 mM) was added to each well and absorbance was measured at λ = 570 nm employing a reader (96 wells, Tecan Spectra, Crailsheim, Germany). The EC50 values were averaged from three independent experiments performed each in triplicate calculated from semi logarithmic dose response curves applying a non-linear four-parameter Hills-slope equation (GraphPad Prism5; variables top and bottom were set to 100 and 0, respectively).

[2] = system: HT29 (colon adenocarcinoma); experiment: SRB cytotoxicity assay, HT29; type: cell-based, human; conditions: mean ± standard mean error
Text: as §1

[3] = system: MCF-7 (breast adenocarcinoma); experiment: SRB cytotoxicity assay, MCF-7; type: cell-based; conditions: Homo sapiens, MCF7, 72 h of treatment, mean ± standard mean error
Text: as §1

[4] = system: FaDu (hypopharyngeal carcinoma); experiment: SRB cytotoxicity assay, FaDu; type: cell-based; conditions: Homo sapiens, 72 h of treatment, mean ± standard mean error
Text: as §1

[5] = system: A2780 (ovarian carcinoma); experiment: SRB cytotoxicity assay, A2780; type: cell-based; conditions: Homo sapiens, 72 h of treatment, mean ± standard mean error
Text: as §1

A375 (melanoma) = experiment: SRB cytotoxicity assay, A375; type: cell-based, human; conditions: mean ± standard mean error
Text: as §1

[6] = NIH3T3, 72 h, 72 h of treatment
[7] = Homo sapiens, HT-29, 72 h, 72 h of treatment
[8] = Homo sapiens, A-375, 72 h, 72 h of treatment

melting point	SMILES	EC50 [1, 6]	EC50 [2, 7]	EC50 [3]	EC50 [4]	EC50 [5]	EC50 (A375 (melanoma); [8])	EC50 (A375 (melanoma); 72 h of treatment)	EC50 ([1]; NIH3T3, 72 h of treatment)	EC50 ([2]; Homo sapiens, HT-29, 72 h of treatment)	EC50 (A375 (melanoma); Homo sapiens, A-375, 72 h of treatment)	EC50 ([2]; 72 h of treatment)
245 to 251 °C	CCN(CC)c1ccc2c(-c3ccccc3C(=O)N3CCN(C(=O)[C@]45CC[C@@H](C)[C@H](C)C4C4=CCC6[C@@]7(C)CC[C@H](OC(C)=O)C(C)(C)C7CC[C@@]6(C)[C@]4(C)CC5)CC3)c3ccc(=[N+](CC)CC)cc-3oc2c1 (stereo partly drawn) (as salt: chloride) [compound 15, 9-[2-[[4-(3β-Acetyloxy-28-oxo-ursan-12-en-28-yl)-1-piperazinyl]carbonyl]phenyl]-3,6-bis(diethylamino)-xanthylium chloride]	–	–	–	–	–	–	–	–	–	–	–
> 300 °C	CC(=O)O[C@H]1CC[C@@]2(C)C(CC[C@]3(C)C2CC=C2C4CC(C)(C)CC[C@]4(C(=O)N4CCCN(C(=O)c5ccccc5C5=c6cc7c8c(c6Oc6c5cc5c9c6CCCN9CCC5)CCC[N+]=8CCC7)CC4)CC[C@]23C)C1(C)C (some centres unmarked) (as salt: chloride) [compound 26]	–	–	–	–	–	–	–	–	–	–	–
> 300 °C	CC(=O)O[C@H]1CC[C@@]2(C)C(CC[C@]3(C)C2CC=C2C4[C@@H](C)[C@H](C)CC[C@]4(C(=O)N4CCCN(C(=O)c5ccccc5C5=c6cc7c8c(c6Oc6c5cc5c9c6CCCN9CCC5)CCC[N+]=8CCC7)CC4)CC[C@]23C)C1(C)C (some centres unmarked) (as salt: chloride) [compound 27]	–	–	–	–	–	–	–	–	–	–	–
–	C=C(C)[C@@H]1CC[C@]2(C(=O)O)CC[C@]3(C)[C@H](CC[C@@H]4[C@@]5(C)CC[C@H](O)C(C)(C)[C@@H]5CC[C@]43C)[C@@H]12 [BA, betulinic acid, reference compound]	16.1 ± 1.4 µM	14.4 ± 2.3 µM	10.2 ± 1.2 µM	13.7 ± 0.9 µM	8.8 ± 0.9 µM	17.7 ± 0.4 µM	–	–	–	–	–
–	COc1cccc2c1C(=O)c1c(O)c3c(c(O)c1C2=O)C[C@@](O)(C(=O)CO)C[C@@H]3O[C@H]1C[C@H](N)[C@H](O)[C@H](C)O1 [DX, doxorubicin, reference compound]	–	0.9 ± 0.2 µM	1.1 ± 0.3 µM	1.7 ± 0.3 µM	0.02 ± 0.01 µM	–	–	–	–	–	–
–	CC1(C)CC[C@]2(C(=O)O)CC[C@]3(C)C(=CC[C@@H]4[C@@]5(C)CC[C@H](O)C(C)(C)[C@@H]5CC[C@]43C)[C@@H]2C1 [OA, oleanolic acid, reference compound]	> 30 µM	> 30 µM	> 30 µM	> 30 µM	> 30 µM	> 30 µM	–	–	–	–	–
–	CC(=O)[C@@H]1CC[C@]2(C(=O)O)CC[C@]3(C)[C@H](CC[C@@H]4[C@@]5(C)CC[C@H](O)C(C)(C)[C@@H]5CC[C@]43C)[C@@H]12 [PA, platanic acid, reference compound]	> 30 µM	> 30 µM	> 30 µM	> 30 µM	> 30 µM	> 30 µM	–	–	–	–	–
–	C[C@H]1[C@H](C)CC[C@]2(C(=O)O)CC[C@]3(C)C(=CC[C@@H]4[C@@]5(C)CC[C@H](O)C(C)(C)[C@@H]5CC[C@]43C)[C@H]12 [UA, ursolic acid, reference compound]	–	–	–	18.2 ± 1.7 µM	–	15.4 ± 1 µM	–	–	–	–	–
–	C=C(C)[C@@H]1CC[C@]2(C(=O)O)CC[C@]3(C)[C@H](CC[C@@H]4[C@@]5(C)CC[C@H](OC(C)=O)C(C)(C)[C@@H]5CC[C@]43C)[C@@H]12 [compound 1, 3β-Acetyloxy-lup-20(29)-en-28-oic Acid]	> 30 µM	21.3 ± 2 µM	11 ± 0.5 µM	7.2 ± 1.2 µM	18.3 ± 0.5 µM	21.3 µM	19.2 ± 1.7 µM	–	–	–	–
–	CC(=O)O[C@H]1CC[C@@]2(C)C(CC[C@]3(C)C2CC=C2C4CC(C)(C)CC[C@]4(C(=O)O)CC[C@]23C)C1(C)C (stereo partly drawn) [compound 2, 3β-Acetyloxy-olean-12-en-oic Acid]	–	–	12.9 ± 1.9 µM	11.8 ± 0.9 µM	9.4 ± 0.5 µM	–	–	17.5 ± 1.5 µM	20.5 ± 1.7 µM	13 ± 1.1 µM	–
–	CC(=O)O[C@H]1CC[C@@]2(C)C(CC[C@]3(C)C2CC=C2C4[C@@H](C)[C@H](C)CC[C@]4(C(=O)O)CC[C@]23C)C1(C)C (stereo partly drawn) [compound 3, 3β-Acetyloxy-urs-12-en-oic Acid]	16.4 ± 1.7 µM	17.3 ± 1.5 µM	12.1 ± 1.2 µM	10.7 ± 0.8 µM	8.3 ± 0.9 µM	11.4 ± 1.4 µM	–	–	–	–	–
172 to 175 °C	CC(=O)O[C@H]1CC[C@@]2(C)C(CC[C@]3(C)C2CC=C2C4CC(C)(C)CC[C@]4(C(=O)N4CCNCC4)CC[C@]23C)C1(C)C (stereo partly drawn) [compound 6, 3β-Acetyloxy-28-(1-piperazinyl)-olean-12-en-28-one]	1.7 ± 0.1 µM	1.3 ± 0.1 µM	1.7 ± 0.2 µM	–	1.7 ± 0.1 µM	1.4 ± 0.2 µM	–	–	–	–	–
187 to 190 °C	CC(=O)O[C@H]1CC[C@@]2(C)C(CC[C@]3(C)C2CC=C2C4[C@@H](C)[C@H](C)CC[C@]4(C(=O)N4CCNCC4)CC[C@]23C)C1(C)C (stereo partly drawn) [compound 7, 3β-Acetyloxy-28-(1-piperazinyl)-urs-12-en-28-one]	2.1 ± 0.1 µM	1.9 ± 0.3 µM	1.7 ± 0.2 µM	–	2.1 ± 0.1 µM	2 ± 0.4 µM	–	–	–	–	–
182 to 185 °C	CC(=O)O[C@H]1CC[C@@]2(C)C(CC[C@]3(C)C2CC=C2C4CC(C)(C)CC[C@]4(C(=O)N4CCCNCC4)CC[C@]23C)C1(C)C (stereo partly drawn) [compound 10, 3β-Acetyloxy-28-(1-homopiperazinyl)-olean-12-en-28-one]	1.8 ± 0.2 µM	1.9 ± 0.1 µM	1.6 ± 0.1 µM	–	2.2 ± 0.1 µM	1.9 ± 0.9 µM	–	–	–	–	–
171 to 175 °C	CC(=O)O[C@H]1CC[C@@]2(C)C(CC[C@]3(C)C2CC=C2C4[C@@H](C)[C@H](C)CC[C@]4(C(=O)N4CCCNCC4)CC[C@]23C)C1(C)C (stereo partly drawn) [compound 11, 3β-Acetyloxy28-(1-homopierazinyl)-urs-12-en-28-one]	0.9 ± 0.1 µM	2 ± 0.1 µM	2.4 ± 0.1 µM	–	2.9 ± 0.24 µM	3.2 ± 0.2 µM	–	–	–	–	–

SMILES	melting point	EC50 [1, 6]	EC50 [2, 7]	EC50 [3]	EC50 [4]	EC50 [5]	EC50 (A375 (melanoma); [8])	EC50 (A375 (melanoma); 72 h of treatment)	EC50 ([1]; NIH3T3, 72 h of treatment)	EC50 ([2]; Homo sapiens, HT-29, 72 h of treatment)	EC50 (A375 (melanoma); Homo sapiens, A-375, 72 h of treatment)	EC50 ([2]; 72 h of treatment)
CCN(CC)c1ccc2c(-c3ccccc3C(=O)N3CCN(C(=O)[C@]45CC[C@@H](C(C)=O)C4C4CCC6[C@@]7(C)CC[C@H](OC(C)=O)C(C)(C)C7CC[C@@]6(C)[C@]4(C)CC5)CC3)c3ccc(=[N+](CC)CC)cc-3oc2c1 (stereo partly drawn) (as salt: chloride) [compound 16, 9-[2-[[4-(3β-Acetyloxy-20,28-dioxo-30-norlupan-28-yl)-1-piperazinyl]carbonyl]phenyl]-3,6-bis(diethylamino)-xanthylium chloride]	247 to 254 °C	–	–	–	–	–	–	–	–	–	–	–
CCN(CC)c1ccc2c(-c3ccccc3C(=O)N3CCCN(C(=O)[C@]45CC[C@@H](C(C)=O)C4C4CCC6[C@@]7(C)CC[C@H](OC(C)=O)C(C)(C)C7CC[C@@]6(C)[C@]4(C)CC5)CC3)c3ccc(=[N+](CC)CC)cc-3oc2c1 (stereo partly drawn) (as salt: chloride) [compound 20, 9-[2-[[4-(3β-Acetyloxy-20,28-dioxo-30-norlupan-28-yl)-1-homopiperazinyl]carbonyl]phenyl]-3,6-bis(diethylamino)-xanthylium chloride]	248 to 250 °C (dec.)	–	–	–	–	–	–	–	–	–	–	–
CC(=O)O[C@H]1CC[C@@]2(C)C(CC[C@]3(C)C2CCC2C4[C@H](C(C)=O)CC[C@]4(C(=O)N4CCCN(C(=O)c5ccccc5C5=c6cc7c8c(c6Oc6c5cc5c9c6CCCN9CCC5)CCC[N+]=8CCC7)CC4)CC[C@]23C)C1(C)C (some centres unmarked) (as salt: chloride) [compound 28]	> 300 °C	–	–	–	–	–	–	–	–	–	–	–
CC(=O)O[C@H]1CC[C@@]2(C)C(CC[C@]3(C)C2CCC2C4[C@H](C(C)=O)CC[C@]4(C(=O)N4CCNCC4)CC[C@]23C)C1(C)C (stereo partly drawn) [compound 8, 3β-Acetyloxy-28-(1-piperazinyl)-30-norlupane-20,28-dione]	127 to 130 °C	1.3 ± 0.1 µM	3.86 µM	2.7 ± 0.3 µM	–	2.6 ± 0.4 µM	1.9 ± 0.4 µM	–	–	–	–	3.9 ± 0.2 µM
CC(=O)O[C@H]1CC[C@@]2(C)C(CC[C@]3(C)C2CCC2C4[C@H](C(C)=O)CC[C@]4(C(=O)N4CCCNCC4)CC[C@]23C)C1(C)C (stereo partly drawn) [compound 12, 3β-Acetyloxy-28-(1-homopiperazinyl)-30-norlupane-20,28-dione]	162 to 165 °C	0.6 ± 0.1 µM	2.3 ± 0.2 µM	1.8 ± 0.2 µM	–	1.6 ± 0.1 µM	0.9 ± 0.1 µM	–	–	–	–	–
